Read-outs that look alike come from different tables or passages of the source.
Experiments:
Assay in all cases: TGFα-shedding assay-based GPCR screening with chimeric Gα subunit proteins
Assay type in all cases: cell-based
348 GPCRs [1] = biological target: T1, 348 GPCRs (Homo sapiens, UniProt O00590); conditions: 10µM, Favipiravir 100μM
T1 construct: expressed in transfected cells; host or cells: HEK293A
T1 sequence (O00590 1-384): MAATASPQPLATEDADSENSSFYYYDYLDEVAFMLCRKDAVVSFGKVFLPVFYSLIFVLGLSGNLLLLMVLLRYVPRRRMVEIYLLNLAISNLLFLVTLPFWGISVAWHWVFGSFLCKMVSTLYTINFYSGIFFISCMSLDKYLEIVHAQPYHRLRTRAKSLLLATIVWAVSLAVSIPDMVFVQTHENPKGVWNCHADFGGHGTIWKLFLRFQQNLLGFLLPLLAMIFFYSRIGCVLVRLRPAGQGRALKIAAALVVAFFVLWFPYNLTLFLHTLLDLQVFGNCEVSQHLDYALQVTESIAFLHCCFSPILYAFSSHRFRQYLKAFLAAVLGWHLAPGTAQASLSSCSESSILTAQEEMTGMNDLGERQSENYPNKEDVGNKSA

348 GPCRs [2] = biological target: T2, 348 GPCRs (Homo sapiens, UniProt O00574)
T2 construct: expressed in transfected cells; host or cells: HEK293A

348 GPCRs [3] = biological target: T3, 348 GPCRs (Homo sapiens, UniProt P25090); conditions: 10µM, Favipiravir 100μM
T3 sequence (P25090 1-351): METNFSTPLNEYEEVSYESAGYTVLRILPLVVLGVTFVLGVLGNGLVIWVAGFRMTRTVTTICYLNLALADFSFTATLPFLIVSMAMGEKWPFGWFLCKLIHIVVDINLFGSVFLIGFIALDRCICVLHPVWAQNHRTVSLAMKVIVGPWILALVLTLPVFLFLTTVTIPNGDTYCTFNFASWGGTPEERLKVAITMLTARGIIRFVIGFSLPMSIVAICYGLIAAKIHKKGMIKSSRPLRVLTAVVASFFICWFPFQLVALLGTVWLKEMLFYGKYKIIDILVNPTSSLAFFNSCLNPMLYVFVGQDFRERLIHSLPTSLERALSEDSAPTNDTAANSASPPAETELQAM

348 GPCRs [4] = biological target: T4, 348 GPCRs (Homo sapiens, UniProt Q9GZP7)
T4 construct: expressed in transfected cells; host or cells: HEK293A
T4 sequence (Q9GZP7 1-353): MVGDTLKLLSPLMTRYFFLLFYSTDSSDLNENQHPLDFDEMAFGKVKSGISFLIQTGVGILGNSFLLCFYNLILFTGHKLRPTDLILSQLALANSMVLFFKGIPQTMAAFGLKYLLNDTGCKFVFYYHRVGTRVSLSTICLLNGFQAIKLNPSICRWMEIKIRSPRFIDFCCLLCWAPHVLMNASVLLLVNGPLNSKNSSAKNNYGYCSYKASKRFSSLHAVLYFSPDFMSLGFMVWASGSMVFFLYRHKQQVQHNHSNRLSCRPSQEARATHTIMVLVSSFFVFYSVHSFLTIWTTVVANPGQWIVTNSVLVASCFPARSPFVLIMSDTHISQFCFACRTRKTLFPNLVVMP

348 GPCRs [5] = biological target: T5, 348 GPCRs (Homo sapiens, UniProt Q86SQ4); conditions: 10µM, Favipiravir 100μM
T5 construct: expressed in transfected cells; host or cells: HEK293A
T5 sequence (Q86SQ4 38-1221): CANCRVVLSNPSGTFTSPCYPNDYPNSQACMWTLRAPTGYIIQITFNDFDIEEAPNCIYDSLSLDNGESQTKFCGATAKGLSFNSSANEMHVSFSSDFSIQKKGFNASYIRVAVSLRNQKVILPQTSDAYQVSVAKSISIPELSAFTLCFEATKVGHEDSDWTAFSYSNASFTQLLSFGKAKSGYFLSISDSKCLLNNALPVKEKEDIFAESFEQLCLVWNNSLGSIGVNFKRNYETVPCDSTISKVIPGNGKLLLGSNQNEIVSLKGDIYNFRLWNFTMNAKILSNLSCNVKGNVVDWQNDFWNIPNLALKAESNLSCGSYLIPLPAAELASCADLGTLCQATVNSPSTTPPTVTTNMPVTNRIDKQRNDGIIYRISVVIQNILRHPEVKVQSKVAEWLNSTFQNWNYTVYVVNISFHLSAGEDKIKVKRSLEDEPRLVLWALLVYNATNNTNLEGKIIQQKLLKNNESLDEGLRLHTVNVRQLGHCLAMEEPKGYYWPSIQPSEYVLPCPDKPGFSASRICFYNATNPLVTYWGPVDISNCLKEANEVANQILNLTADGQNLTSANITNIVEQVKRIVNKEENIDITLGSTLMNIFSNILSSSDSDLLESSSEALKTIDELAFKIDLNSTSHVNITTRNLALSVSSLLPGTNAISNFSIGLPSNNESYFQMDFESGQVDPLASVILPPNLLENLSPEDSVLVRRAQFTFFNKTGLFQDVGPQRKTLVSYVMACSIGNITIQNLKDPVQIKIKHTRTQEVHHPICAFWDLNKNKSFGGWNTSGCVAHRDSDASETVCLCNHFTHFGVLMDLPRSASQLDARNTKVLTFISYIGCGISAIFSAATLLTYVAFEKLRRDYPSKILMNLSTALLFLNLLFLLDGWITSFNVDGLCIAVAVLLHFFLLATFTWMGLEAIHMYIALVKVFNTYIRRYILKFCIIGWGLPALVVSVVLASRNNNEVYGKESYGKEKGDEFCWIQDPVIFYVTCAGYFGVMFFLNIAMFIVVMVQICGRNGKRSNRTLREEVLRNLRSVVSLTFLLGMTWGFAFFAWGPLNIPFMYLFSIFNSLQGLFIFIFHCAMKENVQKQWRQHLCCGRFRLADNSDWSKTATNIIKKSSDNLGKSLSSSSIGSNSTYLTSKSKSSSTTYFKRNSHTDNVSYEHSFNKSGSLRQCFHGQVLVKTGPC

348 GPCRs [6] = biological target: 348 GPCRs (Homo sapiens, UniProt P07550); conditions: 10µM, Favipiravir 100μM
348 GPCRs [7] = biological target: T6, 348 GPCRs (Homo sapiens, UniProt Q99680); conditions: 10µM, Favipiravir 100μM
T6 construct: expressed in transfected cells; host or cells: HEK293A

[8] = CCBP2 (chemokine binding protein 2), read-out: % GPCR activation compared to TPA
[9] = GPCR CXCR6 (C-X-C motif chemokine receptor 6), read-out: % GPCR activation compared to TPA
[10] = FPR2 (formyl peptide receptor 2), read-out: % GPCR activation compared to TPA
[11] = GPCR VN1R1 (vomeronasal 1 receptor), read-out: % GPCR activation compared to TPA
[12] = GPR126 (Adhesion G Protein-Coupled Receptor G6 (ADGRG6)), read-out: % GPCR activation compared to TPA
[13] = ADRB2 (adrenoceptor beta 2, surface), read-out: % GPCR activation compared to TPA
[14] = GPR22 (G Protein-Coupled Receptor 22), read-out: % GPCR activation compared to TPA
[15] = read-out: % GPCR activation compared to TPA, CCBP2 (chemokine binding protein 2)
[16] = read-out: % GPCR activation compared to TPA, GPCR CXCR6 (C-X-C motif chemokine receptor 6)
[17] = read-out: % GPCR activation compared to TPA, FPR2 (formyl peptide receptor 2)
[18] = read-out: % GPCR activation compared to TPA, GPCR VN1R1 (vomeronasal 1 receptor)
[19] = read-out: % GPCR activation compared to TPA, GPR126 (Adhesion G Protein-Coupled Receptor G6 (ADGRG6))
[20] = read-out: % GPCR activation compared to TPA, ADRB2 (adrenoceptor beta 2, surface)
[21] = read-out: % GPCR activation compared to TPA, GPR22 (G Protein-Coupled Receptor 22)

T6 sequence (Q99680 whole entry): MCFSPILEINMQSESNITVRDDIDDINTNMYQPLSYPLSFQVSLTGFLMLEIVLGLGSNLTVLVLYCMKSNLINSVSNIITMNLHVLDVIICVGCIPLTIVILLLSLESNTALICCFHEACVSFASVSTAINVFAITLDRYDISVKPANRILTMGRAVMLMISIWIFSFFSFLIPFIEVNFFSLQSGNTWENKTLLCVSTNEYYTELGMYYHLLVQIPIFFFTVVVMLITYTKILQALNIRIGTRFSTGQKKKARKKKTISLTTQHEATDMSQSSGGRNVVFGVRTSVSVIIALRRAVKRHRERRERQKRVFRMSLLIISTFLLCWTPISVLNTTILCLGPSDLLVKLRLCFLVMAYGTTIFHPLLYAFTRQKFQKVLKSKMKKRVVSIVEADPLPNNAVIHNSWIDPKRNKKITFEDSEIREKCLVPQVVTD
T2 sequence (O00574 whole entry): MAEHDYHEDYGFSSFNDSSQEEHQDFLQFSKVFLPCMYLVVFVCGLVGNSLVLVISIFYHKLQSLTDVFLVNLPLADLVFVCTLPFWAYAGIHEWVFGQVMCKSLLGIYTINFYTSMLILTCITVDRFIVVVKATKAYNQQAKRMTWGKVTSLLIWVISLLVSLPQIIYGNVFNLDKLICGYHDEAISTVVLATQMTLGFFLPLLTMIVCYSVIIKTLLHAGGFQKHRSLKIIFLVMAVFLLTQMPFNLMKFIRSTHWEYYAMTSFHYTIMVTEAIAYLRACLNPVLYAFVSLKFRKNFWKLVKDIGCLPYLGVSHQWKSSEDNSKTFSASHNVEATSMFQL
Chain of 348 GPCRs (Homo sapiens, UniProt P07550) (P07550 whole entry): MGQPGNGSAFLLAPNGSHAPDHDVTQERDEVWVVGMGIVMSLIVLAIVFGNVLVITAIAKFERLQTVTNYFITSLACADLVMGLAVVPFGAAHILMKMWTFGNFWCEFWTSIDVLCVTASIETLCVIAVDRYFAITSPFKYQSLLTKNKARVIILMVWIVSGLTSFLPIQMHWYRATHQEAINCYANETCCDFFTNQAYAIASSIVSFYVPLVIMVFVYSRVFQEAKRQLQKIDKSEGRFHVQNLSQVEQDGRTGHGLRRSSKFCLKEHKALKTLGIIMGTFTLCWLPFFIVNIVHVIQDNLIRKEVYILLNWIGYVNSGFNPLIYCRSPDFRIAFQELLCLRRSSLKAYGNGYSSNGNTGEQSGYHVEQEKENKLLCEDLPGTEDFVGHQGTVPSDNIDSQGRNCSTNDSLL

activation at 100 µM (348 GPCRs [1]; [8]) [%] | activation at 10 µM (348 GPCRs [2]; [9]) [%] | activation at 100 µM (348 GPCRs [3]; [10]) [%] | activation at 10 µM (348 GPCRs [4]; [11]) [%] | activation at 100 µM (348 GPCRs [5]; [12]) [%] | activation at 10 µM (348 GPCRs [6]; [13]) [%] | activation at 100 µM (348 GPCRs [7]; [14]) [%] | activation at 100 µM (348 GPCRs [2]; GPCR CXCR6 (C-X-C motif chemokine receptor 6), 100μM, read-out: % GPCR activation compared to TPA) [%] | activation at 100 µM (348 GPCRs [4]; GPCR VN1R1 (vomeronasal 1 receptor), 100μM, read-out: % GPCR activation compared to TPA) [%] | SMILES | activation at 100 µM (348 GPCRs [1]; [15]) [%] | activation at 10 µM (348 GPCRs [2]; [16]) [%] | activation at 100 µM (348 GPCRs [3]; [17]) [%] | activation at 10 µM (348 GPCRs [4]; [18]) [%] | activation at 100 µM (348 GPCRs [5]; [19]) [%] | activation at 10 µM (348 GPCRs [6]; [20]) [%] | activation at 100 µM (348 GPCRs [7]; [21]) [%]
-3.26 | -0.956 | -0.97 | 2.87 | -3.47 | -0.409 | 0.701 | – | – | N#C[C@@]1(c2ccc3c(N)ncnn23)O[C@H](CO)[C@@H](O)[C@H]1O [GS441524] | – | – | – | – | – | – | –
-6.14 | – | -3.31 | – | -2.03 | -1 | -0.704 | -1.02 | 1.77 | NC(=O)c1nc(F)cnc1O [favipiravir, 6-fluoro-3-hydroxy-2-pyrazinecarboxamide] | – | – | – | – | – | – | –
-0.55 | 0.979 | -1.5 | -1.19 | -3.31 | 0.263 | -2.13 | – | – | CC(C)C(=O)OC[C@H]1O[C@@H](n2ccc(NO)nc2=O)[C@H](O)[C@@H]1O [molnupiravir] | – | – | – | – | – | – | –
– | – | – | – | – | – | – | – | – | CCC(CC)COC(=O)[C@H](C)N[P@](=O)(OC[C@H]1O[C@@](C#N)(c2ccc3c(N)ncnn23)[C@H](O)[C@@H]1O)Oc1ccccc1 [remdesivir] | -7.69 | 0.837 | -0.745 | 3.04 | -0.536 | 1.06 | -1.09
– | – | – | – | – | – | – | – | – | CC(C)OC(=O)[C@H](C)N[P@](=O)(OC[C@H]1O[C@@H](n2ccc(=O)[nH]c2=O)[C@](C)(F)[C@@H]1O)Oc1ccccc1 [sofosbuvir] | -0.681 | -0.824 | -1.57 | -0.898 | -2.49 | 1.76 | 0.408

From PMC10175918 (Communications Biology, 2023)
